Experimental data: patent US12617758B2, “Quinazoline derivative having FLT3 inhibitory activity, and use thereof” (INDUSTRY-UNIVERSITY COOPERATION FOUNDATION HANYANG …, priority 2020, dated 2026)

Columns and labels:
Assay in all cases: Kinase panel screening
Type in all cases: biochemical
Conditions in all cases: single dose of 10 μM, read-out: % inhibition rate
[1] = biological target: EGFR (Homo sapiens, UniProt P00533)
[2] = biological target: BRAF (V599E) (Homo sapiens, UniProt P15056, V600E)
[3] = biological target: c-Src (Homo sapiens, UniProt P12931)
Chain of c-Src (P12931 whole entry, species assumed): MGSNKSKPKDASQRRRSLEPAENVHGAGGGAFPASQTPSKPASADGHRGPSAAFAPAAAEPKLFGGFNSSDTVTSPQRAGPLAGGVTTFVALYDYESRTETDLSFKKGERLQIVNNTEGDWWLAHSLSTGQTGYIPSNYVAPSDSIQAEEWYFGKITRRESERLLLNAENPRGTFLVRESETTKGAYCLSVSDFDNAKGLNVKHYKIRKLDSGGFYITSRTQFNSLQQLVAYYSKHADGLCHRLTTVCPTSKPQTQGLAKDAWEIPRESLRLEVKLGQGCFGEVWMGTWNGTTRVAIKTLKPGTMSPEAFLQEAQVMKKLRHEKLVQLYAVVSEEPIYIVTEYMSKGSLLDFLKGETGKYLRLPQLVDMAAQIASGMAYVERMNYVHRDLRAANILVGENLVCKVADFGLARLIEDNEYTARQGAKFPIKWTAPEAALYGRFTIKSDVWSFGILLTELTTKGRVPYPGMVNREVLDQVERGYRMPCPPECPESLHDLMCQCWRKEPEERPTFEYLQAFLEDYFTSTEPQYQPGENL

Chain of BRAF (V599E) (P15056 416-766 V600E limits assumed, species assumed): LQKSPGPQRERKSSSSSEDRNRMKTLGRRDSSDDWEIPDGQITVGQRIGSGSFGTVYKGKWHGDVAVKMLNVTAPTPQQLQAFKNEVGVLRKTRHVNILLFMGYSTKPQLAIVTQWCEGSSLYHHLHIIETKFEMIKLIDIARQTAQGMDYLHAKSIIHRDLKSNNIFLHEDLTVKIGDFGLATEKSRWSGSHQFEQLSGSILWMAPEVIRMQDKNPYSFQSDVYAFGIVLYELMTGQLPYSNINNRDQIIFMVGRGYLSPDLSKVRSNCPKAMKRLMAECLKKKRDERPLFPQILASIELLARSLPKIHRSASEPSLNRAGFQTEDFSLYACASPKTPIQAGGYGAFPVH
Chain of EGFR (P00533 25-1210, species assumed): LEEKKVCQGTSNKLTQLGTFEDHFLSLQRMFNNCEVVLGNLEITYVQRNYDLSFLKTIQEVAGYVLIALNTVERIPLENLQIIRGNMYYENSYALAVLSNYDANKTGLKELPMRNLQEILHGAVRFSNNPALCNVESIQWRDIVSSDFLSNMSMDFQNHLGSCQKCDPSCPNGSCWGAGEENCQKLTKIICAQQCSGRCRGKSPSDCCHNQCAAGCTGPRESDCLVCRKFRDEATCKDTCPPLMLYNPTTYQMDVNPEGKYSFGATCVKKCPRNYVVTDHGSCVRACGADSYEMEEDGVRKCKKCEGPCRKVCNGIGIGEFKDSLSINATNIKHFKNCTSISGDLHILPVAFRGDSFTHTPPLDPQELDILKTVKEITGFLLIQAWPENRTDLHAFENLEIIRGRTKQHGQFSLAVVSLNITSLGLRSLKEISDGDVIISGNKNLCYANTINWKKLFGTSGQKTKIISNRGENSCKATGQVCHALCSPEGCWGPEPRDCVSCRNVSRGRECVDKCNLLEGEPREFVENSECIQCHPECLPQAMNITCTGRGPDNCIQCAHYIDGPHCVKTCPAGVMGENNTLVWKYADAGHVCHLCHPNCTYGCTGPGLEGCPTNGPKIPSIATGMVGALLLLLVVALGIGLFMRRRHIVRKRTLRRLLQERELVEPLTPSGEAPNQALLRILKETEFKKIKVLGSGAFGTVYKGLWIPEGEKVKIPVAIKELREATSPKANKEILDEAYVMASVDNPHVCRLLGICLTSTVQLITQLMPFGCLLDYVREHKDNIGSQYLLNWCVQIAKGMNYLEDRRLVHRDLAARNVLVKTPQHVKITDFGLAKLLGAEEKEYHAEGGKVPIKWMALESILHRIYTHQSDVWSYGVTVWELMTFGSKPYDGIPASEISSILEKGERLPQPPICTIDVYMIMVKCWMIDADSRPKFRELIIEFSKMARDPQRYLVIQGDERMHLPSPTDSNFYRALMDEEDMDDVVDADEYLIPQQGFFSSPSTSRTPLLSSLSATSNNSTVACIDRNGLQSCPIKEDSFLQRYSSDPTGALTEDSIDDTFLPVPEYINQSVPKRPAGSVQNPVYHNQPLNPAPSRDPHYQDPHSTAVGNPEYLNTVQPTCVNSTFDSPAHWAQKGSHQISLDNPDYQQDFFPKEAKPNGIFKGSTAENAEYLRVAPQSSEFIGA

SMILES: Cc1oncc1C(=O)Nc1ccc2cnc(-c3cc(N4CCN(C)CC4)cc(C(F)(F)F)c3)nc2c1 [Compound 7d, 5-methyl-N-(2-(3-(4-methylpiperazin-1-yl)-5-(trifluoromethyl)phenyl)quinazolin-7-yl)isoxazole-4-carboxamide]
- inhibition at 10 µM [1]: 0%
- inhibition at 10 µM [2]: 5.19%
- inhibition at 10 µM [3]: 14.6%
